Target: T1, MMP-2 (Homo sapiens, UniProt P08253)
T1 construct: purchased Calbiochem (Merck-Millipore)
T1 sequence (P08253 110-660): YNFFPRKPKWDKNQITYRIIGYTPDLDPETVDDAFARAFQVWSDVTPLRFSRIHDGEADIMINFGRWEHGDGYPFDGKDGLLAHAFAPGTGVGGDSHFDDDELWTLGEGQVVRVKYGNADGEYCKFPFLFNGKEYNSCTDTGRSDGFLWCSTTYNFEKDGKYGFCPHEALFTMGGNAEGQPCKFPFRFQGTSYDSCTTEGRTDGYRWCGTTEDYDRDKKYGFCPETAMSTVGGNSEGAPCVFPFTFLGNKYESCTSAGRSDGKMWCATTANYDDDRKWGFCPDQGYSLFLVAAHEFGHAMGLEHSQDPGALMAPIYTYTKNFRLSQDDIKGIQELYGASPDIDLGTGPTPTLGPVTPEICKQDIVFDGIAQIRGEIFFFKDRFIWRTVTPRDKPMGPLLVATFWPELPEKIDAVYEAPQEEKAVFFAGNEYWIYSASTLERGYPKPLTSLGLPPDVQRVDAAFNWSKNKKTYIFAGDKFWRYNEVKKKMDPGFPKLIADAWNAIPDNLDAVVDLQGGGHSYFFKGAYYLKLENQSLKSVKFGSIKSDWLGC
Test: MMP-2 fluorometric inhibition assay
Type: biochemical
Settings: mean of three independent experiments in duplicate, read-out: In vitro inhibitory activity IC50 on MMP-2
Procedure: The newly synthesized bivalent derivatives 1–3 were then tested in vitro on human recombinant ADAM8 in comparison with JG26 by a fluorometric assay. The inhibitory activity against a panel of MMPs and ADAM10/17 was determined as well to assess their selectivity profile. […]
VI. Biological Activity on Isolated Enzymes
MMP and ADAM10 inhibition assays.
Recombinant human MMP-14 catalytic domain was a kind gift of Prof. Gillian Murphy (Department of […]
Oncology, University of Cambridge, UK). Pro-MMP-1, pro-MMP-2, and pro-MMP-9, were purchased […]
from Calbiochem (Merck-Millipore). Pro-MMP-12 and ADAM10 were purchased from R&D Systems.
Proenzymes were activated immediately prior to use with p-aminophenylmercuric acetate (APMA 2 […]
mM for 1 h at 37°C for MMP-2 and MMP-1, 1 mM for 1 h at 37°C for MMP-9). Pro-MMP-12 was […]
auto activated by incubating in the fluorometric assay buffer (FAB: Tris 50 mM, pH = 7.5, NaCl 150 […]
mM, CaCl2 10 mM, Brij 35 0.05% and DMSO 1%) for 30 h at 37°C. For assay measurements, each […]
inhibitor stock solution (DMSO, 10 mM) was further diluted in FAB at seven different concentrations.
Activated enzyme (final concentration 0.56 nM for MMP-2, 1.3 nM for MMP-9, 1.0 nM for MMP- […]
14cd, 2.0 nM for MMP-1, 2.3 nM for MMP-12 and 20 nM for ADAM10) and inhibitor solutions were […]
incubated in the assay buffer for 3 h at 25 °C. ADAM10 was incubated for 1 h at 37°C in a different […]
buffer at pH 9 (Tris 25 mM, ZnCl2 25 µM, Brij-35 0.005 %). After the addition of 200 µM solution of […]
the fluorogenic substrate Mca-Lys-Pro-Leu-Gly-Leu-Dap(Dnp)-Ala-Arg-NH2 (Bachem) for all the […]
enzymes in DMSO (final concentration 2 µM for all enzymes, 10 µM for ADAM10), the hydrolysis […]
was monitored every 10 sec. for 15 min. recording the increase in fluorescence (λ ex = 325 nm, λ em = […]
400 nm) using a Molecular Devices SpectraMax Gemini XPS plate reader. The assays were performed […]
in triplicate in a total volume of 200 μL per well in 96-well microtitre plates (Corning, black, NBS).
Control wells lack inhibitor. The MMP inhibition activity was expressed in relative fluorescent units […]
(RFU). Percent of inhibition was calculated from control reactions without the inhibitor. IC50 was determined using the formula: v i/v o = 1/(1 + [I]/ IC50), where v i is the initial velocity of substrate cleavage in the presence of the inhibitor at concentration [I] and v o is the initial velocity in the absence of the inhibitor. Results were analyzed using SoftMax Pro software (version 5.4.3, Molecular Devices, Sunnyvale, CA) and Prism Software version 5.0 (GraphPad Software, Inc., La Jolla, CA, USA).
ADAM8 and ADAM17 inhibition assays […]

| SMILES | IC50 [nM] |
| --- | --- |
| O=C(CCCNC(=O)c1cccc(C(=O)NCCCC(=O)NCCC[C@@H](NS(=O)(=O)c2ccc(OCc3cc(Br)cc(Br)c3)cc2)C(=O)NO)c1)NCCC[C@@H](NS(=O)(=O)c1ccc(OCc2cc(Br)cc(Br)c2)cc1)C(=O)NO [Compound 1] | 4660 |
| O=C(NCCC[C@@H](NS(=O)(=O)c1ccc(OCc2cc(Br)cc(Br)c2)cc1)C(=O)NO)c1cccc(C(=O)NCCC[C@@H](NS(=O)(=O)c2ccc(OCc3cc(Br)cc(Br)c3)cc2)C(=O)NO)c1 [Compound 2] | 3000 |
| NC(=O)NCCC[C@@H](NS(=O)(=O)c1ccc(OCc2cc(Br)cc(Br)c2)cc1)C(=O)NO [JG26, reference compound] | 240 |
| O=C(NCCC[C@@H](NS(=O)(=O)c1ccc(OCc2cc(Br)cc(Br)c2)cc1)C(=O)NO)NCCC[C@@H](NS(=O)(=O)c1ccc(OCc2cc(Br)cc(Br)c2)cc1)C(=O)NO [Compound 3] | 900 |

— PMC8805605, “Discovery of Dimeric Arylsulfonamides as Potent ADAM8 Inhibitors” (ACS Medicinal Chemistry Letters, 2021)
